Patent publication US9828339B2, “Biphenyl derivatives and methods for preparing same” (DONG-A ST CO., LTD, priority 2013, dated 2017)

Legend:
[1] = target: T1, human muscarinic M3 receptor (Homo sapiens (Human), UniProt P20309); experiment: Binding assay on human muscarinic M3 receptor ([3H]-methyl scopolamine displacement); details: membranes overexpressing human M3 receptor, Ki from IC50 by Cheng-Prusoff, read-out: Binding Affinity to M3 Receptor, Ki
Summary of the method: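 Displacement of [3H]-methyl scopolamine from membranes overexpressing human M3, in Tris-HCl, 25 °C, 120 min; filter-bound radioactivity counted. Nonspecific binding with 5 μM atropine; Ki from IC50 via Cheng-Prusoff.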

[2] = target: T1, human muscarinic M3 receptor; experiment: Antagonism assay on human muscarinic M3 receptor (carbachol-induced intracellular calcium, FLIPR Calcium 5, transfected Cos-7 cells); type: cell-based; details: functional inhibitory constant; carbachol-induced intracellular calcium in Cos-7 cells transfected with human M3 receptor
Description: [Experimental Example 2] Antagonism Assay on Human Muscarinic M3 Receptor
The antagonism assay for various compounds of the present invention was conducted on antagonism to human M3 receptor in Cos-7 cells that was transfected with plasmid coding human muscarinic M3 receptor. Test compounds in various concentrations were pre-treated to the cells for 3 minutes, and then the changes of intracellular calcium were measured after treating the same with carbachol (i.e. muscarinic receptor agonist). The FLIPR® Calcium 5 assay (Molecular Devices) and Flex3 device (Molecular Devices) were used to measure concentration of calcium. Amounts of calcium before and after carbachol treatment were set as 0% and 100% respectively. Inhibition rates (%) by the compounds for increase in intracellular calcium by carbachol were calculated. The antagonistic potency of the test compounds on human muscarinic M3 receptor was calculated as the functional inhibitory constant (Ki), which can be calculated from concentration (IC50) of compound inhibiting 50% of activity of carbachol according to Cheng and Prusoff equation.

T1 sequence (P20309 whole entry): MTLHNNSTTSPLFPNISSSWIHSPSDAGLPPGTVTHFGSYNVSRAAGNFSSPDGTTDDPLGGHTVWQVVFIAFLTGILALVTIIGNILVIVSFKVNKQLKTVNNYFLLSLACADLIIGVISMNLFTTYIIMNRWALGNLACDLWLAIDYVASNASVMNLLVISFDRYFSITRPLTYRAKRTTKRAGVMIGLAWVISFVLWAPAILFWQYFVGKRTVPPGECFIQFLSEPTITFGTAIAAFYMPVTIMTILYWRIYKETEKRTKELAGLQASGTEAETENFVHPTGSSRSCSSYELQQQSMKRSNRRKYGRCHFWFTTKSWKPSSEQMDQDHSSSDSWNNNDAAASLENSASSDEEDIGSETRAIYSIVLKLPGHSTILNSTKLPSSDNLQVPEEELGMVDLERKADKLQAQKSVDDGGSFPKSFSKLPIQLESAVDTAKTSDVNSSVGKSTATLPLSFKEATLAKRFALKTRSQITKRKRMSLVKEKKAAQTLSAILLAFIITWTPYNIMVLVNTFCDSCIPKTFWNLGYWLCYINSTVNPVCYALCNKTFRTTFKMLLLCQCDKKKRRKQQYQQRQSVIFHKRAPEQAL

Row | SMILES | Ki [1] [nM] | Ki [2] [nM]
1 | CN1CCCC1CCOC(=O)Nc1ccc(F)cc1-c1ccc(O)c(Cl)c1 (stereo not drawn) [Example 58, 2-(1-methylpyrrolidin-2-yl)ethyl(3′-chloro-5-fluoro-4′-hydroxy-[1,1′-biphenyl]-2-yl)carbamate] | 26.3 | 4.7
2 | CN1CC[C@@H](COC(=O)Nc2ccc(F)cc2-c2cc(Cl)cc(Cl)c2)C1 [Example 135, (R)-(1-methylpyrrolidin-3-yl)methyl(3′,5′-dichloro-5-fluoro-[1,1′-biphenyl]-2-yl)carbamate] | 24.1 | 16.5
3 | CN1CCCC1CCOC(=O)Nc1ccccc1-c1ccc(F)c(Cl)c1 (stereo not drawn) [Example 41, 2-(1-methylpyrrolidin-2-yl)ethyl(3′-chloro-4′-fluoro-[1,1′-biphenyl]-2-yl)carbamate] | 2.45 | 0.18
4 | CN1CCC[C@H]1COC(=O)Nc1ccccc1-c1ccc(F)cc1F [Example 188, (S)-(1-methylpyrrolidin-2-yl)methyl(2′,4′-difluoro-[1,1′-biphenyl]-2-yl)carbamate] | 13.7 | 2.23
5 | CN1CCCC1CCOC(=O)Nc1ccc(Cl)cc1-c1cccc(F)c1 (stereo not drawn) [Example 67, 2-(1-Methylpyrrolidin-2-yl)ethyl(5-chloro-3′-fluoro-[1,1′-biphenyl]-2-yl)carbamate] | 16.3 | 11.9
6 | CN1CCCC1CCOC(=O)Nc1ccc(O)cc1-c1ccc(F)c(Cl)c1 (stereo not drawn) [Example 77, 2-(1-methylpyrrolidin-2-yl)ethyl (3′-chloro-4′-fluoro-5-hydroxy-[1,1′-biphenyl]-2-yl)carbamate] | 22 | 10
7 | CN1CCCC1CCOC(=O)Nc1ccccc1-c1cc(Cl)ccc1F (stereo not drawn) [Example 186, 2-(1-Methylpyrrolidin-2-yl)ethyl (5′-chloro-2′-fluoro-[1,1′-biphenyl]-2-yl)carbamate] | 4.68 | 0.34
8 | CN1CC[C@@H](COC(=O)Nc2ccc(F)cc2-c2ccccc2F)C1 [Example 144, (R)-(1-methylpyrrolidin-3-yl)methyl(2′,5-difluoro-[1,1′-biphenyl]-2-yl)carbamate] | 17.2 | 1.42
9 | CN1CC[C@H](COC(=O)Nc2ccc(F)cc2-c2cc(Cl)cc(Cl)c2)C1 [Example 126, (S)-(1-methylpyrrolidin-3-yl)methyl(3′,5′-dichloro-5-fluoro-[1,1′-biphenyl]-2-yl)carbamate] | 24.8 | 17.5
10 | CN1CCCC1CCOC(=O)Nc1ccccc1-c1ccc(F)cc1F (stereo not drawn) [Example 183, 2-(1-Methylpyrrolidin-2-yl)ethyl (2′,4′-difluoro-[1,1′-biphenyl]-2-yl)carbamate] | 18.9 | 2.57
11 | CN1CCC[C@H]1COC(=O)Nc1ccccc1-c1cc(F)cc(Cl)c1 [Example 148, (S)-(1-methylpyrrolidin-2-yl)methyl(3′-chloro-5′-fluoro-[1,1′-biphenyl]-2-yl)carbamate] | 10.2 | 2.22
12 | CN1CCCC1CCOC(=O)Nc1ccc(F)cc1-c1cc(Cl)c(F)c(Cl)c1 (stereo not drawn) [Example 56, 2-(1-methylpyrrolidin-2-yl)ethyl(3′,5′-dichloro-4′,5-difluoro-[1,1′-biphenyl]-2-yl)carbamate] | 12.5 | 10
13 | CC(C)N1CC[C@@H](COC(=O)Nc2ccccc2-c2ccc(F)c(Cl)c2)C1 [Example 151, (R)-(1-isopropylpyrrolidin-3-yl)-methyl (3′-chloro-4′-fluoro-[1,1′-biphenyl]-2-yl)carbamate] | 14.9 | 2.67
14 | CN1CCC[C@H]1COC(=O)Nc1ccccc1-c1ccccc1F [Example 187, (S)-(1-methylpyrrolidin-2-yl)methyl(2′-fluoro-[1,1′-biphenyl]-2-yl)carbamate] | 10.7 | 0.48
15 | CN1CCCC1CCOC(=O)Nc1ccc(Cl)cc1-c1ccc(F)cc1 (stereo not drawn) [Example 68, 2-(1-Methylpyrrolidin-2-yl)ethyl(5-chloro-4′-fluoro-[1,1′-biphenyl]-2-yl)carbamate] | 13.2 | 13.2
16 | CN1CC[C@@H](COC(=O)Nc2ccccc2-c2ccccc2F)C1 [Example 156, (R)-(1-methylpyrrolidin-3-yl)methyl(2′-fluoro-[1,1′-biphenyl]-2-yl)carbamate] | 10.6 | 1.15
17 | CN1CC[C@@H](COC(=O)Nc2ccccc2-c2ccc(F)c(F)c2)C1 [Example 115, (R)-(1-methylpyrrolidin-3-yl)methyl(3′,4′-difluoro-[1,1′-biphenyl]-2-yl)carbamate] | 7.49 | 0.32
18 | CN1CC[C@H](COC(=O)Nc2ccccc2-c2cccc(F)c2)C1 [Example 116, (S)-(1-methylpyrrolidin-3-yl)-methyl (3′-fluoro-[1,1′-biphenyl]-2-yl)carbamate] | 12.6 | 1.21
19 | CN1CCC[C@H]1COC(=O)Nc1ccc(F)cc1-c1ccc(F)c(Cl)c1 [Example 211, (S)-(1-methylpyrrolidin-2-yl)methyl(3′-chloro-4′,5-difluoro-[1,1′-biphenyl]-2-yl)carbamate] | 9.91 | 10
20 | COc1ccc(NC(=O)OC[C@@H]2CCCN2C)c(-c2cccc(Cl)c2)c1 [Example 224, (S)-(1-methylpyrrolidin-2-yl)methyl(3′-chloro-5-methoxy-[1,1′-biphenyl]-2-yl)carbamate] | 15.1 | 7.5
21 | COc1ccc(NC(=O)OC[C@@H]2CCCN2C)c(-c2cc(Cl)cc(Cl)c2)c1 [Example 226, (S)-(1-methylpyrrolidin-2-yl)methyl (3′,5′-dichloro-5-methoxy-[1,1′-biphenyl]-2-yl)carbamate] | 16.7 | 4.99

More lines, in order of falling Ki [1], values ahead:

Row | Ki [1] [nM] | Ki [2] [nM] | SMILES
22 | 9.7 | 1.03 | CN1CC[C@H](COC(=O)Nc2ccccc2-c2cc(F)cc(Cl)c2)C1 [Example 120, (S)-(1-methylpyrrolidin-3-yl)methyl(3′-chloro-5′-fluoro-[1,1′-biphenyl]-2-yl)carbamate]
23 | 9.21 | 1.19 | CN1CCCC1CCOC(=O)Nc1ccc(F)cc1-c1ccc(F)c(F)c1 (stereo not drawn) [Example 42, 2-(1-methylpyrrolidin-2-yl)ethyl(3′,4′,5-trifluoro-[1,1′-biphenyl]-2-yl)carbamate]
24 | 7.67 | 1.54 | CCN1CC[C@@H](COC(=O)Nc2ccc(F)cc2-c2ccc(F)c(Cl)c2)C1 [Example 196, (R)-(1-ethylpyrrolidin-3-yl)methyl (3′-chloro-4′,5-difluoro-[1,1′-biphenyl]-2-yl)carbamate]
25 | 7.57 | 0.35 | CN1CC[C@@H](COC(=O)Nc2ccc(F)cc2-c2ccc(F)cc2)C1 [Example 141, (R)-(1-methylpyrrolidin-3-yl)methyl(4′,5-difluoro-[1,1′-biphenyl]-2-yl)carbamate]
26 | 5.13 | 0.46 | CN1CC[C@@H](COC(=O)Nc2ccccc2-c2cc(Cl)ccc2F)C1 [Example 159, (R)-(1-methylpyrrolidin-3-yl)methyl(3′-chloro-6′-fluoro-[1,1′-biphenyl]-2-yl)carbamate]
27 | 4.64 | 0.75 | CN1CC[C@@H](COC(=O)Nc2ccccc2-c2cc(F)cc(Cl)c2)C1 [Example 132, (R)-(1-methylpyrrolidin-3-yl)methyl(3′-chloro-5′-fluoro-[1,1′-biphenyl]-2-yl)carbamate]
28 | 4.23 | 0.58 | CN1CC[C@@H](COC(=O)Nc2ccccc2-c2ccc(F)cc2)C1 [Example 114, (R)-(1-methylpyrrolidin-3-yl)methyl(4′-fluoro-[1,1′-biphenyl]-2-yl)carbamate]
29 | 2.42 | 0.77 | CN1CC[C@H](COC(=O)Nc2ccccc2-c2cccc(Cl)c2)C1 [Example 118, (S)-(1-methylpyrrolidin-3-yl)methyl(3′-chloro-[1,1′-biphenyl]-2-yl)carbamate]
30 | 2.25 | 0.49 | CN1CCCC1CCOC(=O)Nc1ccc(F)cc1-c1ccccc1 (stereo not drawn) [Example 21, 2-(1-methylpyrrolidin-2-yl)ethyl(5-fluoro-[1,1′-biphenyl]-2-yl)carbamate]
31 | 2.17 | 0.95 | CN1CCC[C@H]1COC(=O)Nc1ccccc1-c1cc(Cl)ccc1F [Example 190, (S)-(1-methylpyrrolidin-2-yl)methyl(3′-chloro-6′-fluoro-[1,1′-biphenyl]-2-yl)carbamate]
32 | 2.1 | 1.14 | CN1CC[C@@H](COC(=O)Nc2ccccc2-c2ccc(Cl)c(Cl)c2)C1 [Example 130, (R)-(1-methylpyrrolidin-3-yl)-methyl (3′,4′-dichloro-[1,1′-biphenyl]-2-yl)carbamate]
33 | 1.57 | 0.1 | CN1CCC[C@H]1COC(=O)Nc1ccccc1-c1ccc(F)c(Cl)c1 [Example 149, (S)-(1-methylpyrrolidin-2-yl)methyl(3′-chloro-4′-fluoro-[1,1′-biphenyl]-2-yl)carbamate]
